According to patent US6248905A, “Acyl derivatives of glycosyl-L-ascorbic acid” (priority 1998, dated 2001):
Values belong to the compound of their own block, whether it stands above or below them.

What was measured:
[1] = test system: guinea pigs with scorbutus; assay: Anti-scorbutus test; type: in vivo, male Hurtley's guinea pigs; settings: for days needed to recover maximum body weight before initiating the administration: oral, 56.80 μmol/head/shot once every morning
Method: In accordance with the method as reported in Journal of Pharmacobio-Dynamics, Vol. 13, pp. 688-695 (1990) by the present inventors, male Hurtley's guinea pigs, 4-week-old, were bred under free intake of water and vitamin C-defective food, commercialized by Oriental Yeast Co., Ltd., Tokyo, Japan, while the guinea pigs were weighed every morning at a prescribed time as an index of the symptom of anti-scorbutus disease. […] In parallel, one group as a control, in which guinea pigs were administered with only a fresh preparation of the same water free of the specimens, was provided and treated similarly as in the groups with the specimens.

[2] = Radical-entrapping ability (DPPH oxidation-inhibitory activity); type: biochemical; settings: for EC50: DPPH, ambient temperature, 20 min, read-out: EC50 (50% oxidation-inhibitory-concentration); for Oxidation inhibitory effect (%): sample concentration 10^-4 M
Method: In parallel, as a control, a system using a 60 v/v % aqueous ethanol solution was provided in place of the test samples, and treated similarly as in the case of the acyl derivatives. The percentage (%) of the absorbance of the test samples to that of the control was regarded as an oxidation-inhibitory activity, and the activity was used as an index of radical-entrapping ability. The 50% oxidation-inhibitory-concentration (EC50) was calculated based on a logarithmic value of a concentration of the test sample used and on an oxidation-inhibitory ability shown by the sample at the concentration.

physchem = settings: phosphate buffer, pH 7
Method: To the solution was added 9.8 ml of 100 mM phosphate buffered aqueous solution (pH 7.0), and the aqueous solution was sterilized, and then incubated at 37° C. or 60° C. while the aqueous solution was sampled at prescribed times, followed by freezing the samples instantly at -30° C. for storing. Thereafter, the aqueous solution stored by freezing was thawed, analyzed on HPLC, and determined for the remaining content of the acyl derivatives based on the absorbance at a wavelength of 254 nm.

[3] = test system: artificial skin (TESTSKIN, human-skin-restructuring-model); assay: Skin permeation test using TESTSKIN; settings: 10 mM, 37° C., peak levels
[4] = Dynamic test, intravenous administration to rats (blood level); type: in vivo, Male Wister/ST rats
Method: Male Wister/ST rats, 12-14-week-old, were fasted for 16 hours and, under an anesthetic, 200-μl blood was taken from their hearts using a syringe injected with a physiological saline containing 600 units/ml heparin. […] Just after the administration and after a prescribed period of time from the administration, blood was taken from the rats similarly as above at a prescribed time interval, and the blood taken was admixed with an adequate amount of heparin and instantly centrifuged at 4° C. to collect supernatants.

EC50 [2]: 90.3 µM | degraded at 48 h (physchem): 3.9% | degraded at 336 h (physchem): 1.6%
Structure (SMILES): O=C1O[C@H]([C@@H](O)CO)C(O)=C1O[C@H]1O[C@H](CO)[C@@H](O)[C@H](O)[C@H]1O [AA 2G, 2-O-α-D-Monoglucopyranosyl-L-ascorbic acid]
internal bleeding caused by scorbutus ([1]; anatomic finding): no such an observation | blood level of alkaline phosphatase ([1]; blood): recovered almost to the normal level | level of L-ascorbic acid in the blood ([1]; blood, numeral data excluded): recovered nearly to a normal level | level of L-ascorbic acid in the liver ([1]; liver, numeral data excluded): recovered nearly to a normal level | days needed to recover maximum body weight before initiating the administration [1]: eight | Oxidation inhibitory effect (%) [2]: 55.4%

EC50 [2]: 99.8 µM
Structure (SMILES): CCCC(=O)OC[C@H](O)[C@H]1OC(=O)C(O[C@H]2O[C@H](CO)[C@@H](O)[C@H](O)[C@H]2O)=C1O [Example 6-Buty-AA-2G, 6-O-butyryl-2-O-α-D-monoglucopyranosyl-L-ascorbic acid]
Oxidation inhibitory effect (%) [2]: 50.1%

EC50 [2]: 46.4 µM | degraded at 12 h (physchem): 75.9% | degraded at 72 h (physchem): 68.3%
Structure (SMILES): O=C1O[C@H]([C@@H](O)CO)C(O)=C1O [AsA, L-Ascorbic acid]
Oxidation inhibitory effect (%) [2]: 93.7%

EC50 [2]: 91 µM
Structure (SMILES): CCCCCC(=O)OC[C@H](O)[C@H]1OC(=O)C(O[C@H]2O[C@H](CO)[C@@H](O)[C@H](O)[C@H]2O)=C1O [Example 6-Hexa-AA-2G, 2-O-α-D-monoglucopyranosyl-6-O-hexanoyl-L-ascorbic acid]
Oxidation inhibitory effect (%) [2]: 55.1%

EC50 [2]: 63.2 µM | skin permeability (peak level) relative to L-ascorbic acid [3]: 7 times
Structure (SMILES): CCCCCCCCCCCC(=O)OC[C@H](O)[C@H]1OC(=O)C(O[C@H]2O[C@H](CO)[C@@H](O)[C@H](O)[C@H]2O)=C1O [Example 6-Dode-AA-2G, 6-O-dodecanoyl-2-O-α-D-monoglucopyranosyl-L-ascorbic acid]
Oxidation inhibitory effect (%) [2]: 78.3%

blood level of 2-O-α-D-monoglucopyranosyl-L-ascorbic acid after its maximum, when administered with 6-Octa-AA-2G ([4]; metabolite, after maximum): undetectable level | concentration at 0.25 h ([4]; rat, blood, 15 min after administration, read-out: blood level of 6-Octa-AA-2G): 38.2 µM | concentration at 2 min ([4]; rat, blood, two minutes after administration, read-out: blood level of 6-Octa-AA-2G): 525 µM | blood level of L-ascorbic acid compared with 2-O-α-D-monoglucopyranosyl-L-ascorbic acid ([4]; throughout experiment): exceeded | EC50 [2]: 82.7 µM
Structure (SMILES): CCCCCCCC(=O)OC[C@H](O)[C@H]1OC(=O)C(O[C@H]2O[C@H](CO)[C@@H](O)[C@H](O)[C@H]2O)=C1O [Example 6-Octa-AA-2G, 2-O-α-D-monoglucopyranosyl-6-O-octanoyl-L-ascorbic acid]
days needed to recover maximum body weight before initiating the administration [1]: six | Oxidation inhibitory effect (%) [2]: 60.4%

EC50 [2]: 73 µM
Structure (SMILES): CCCCCCCCCC(=O)OC[C@H](O)[C@H]1OC(=O)C(O[C@H]2O[C@H](CO)[C@@H](O)[C@H](O)[C@H]2O)=C1O [Example 6-Deca-AA-2G, 6-O-decanoyl-2-O-α-D-monoglucopyranosyl-L-ascorbic acid]
Oxidation inhibitory effect (%) [2]: 67.5%
